For 20 compounds, inhibition, Activity and fold change (FC) results are on record in ChEMBL document CHEMBL3132756, “Synthesis, structureactivity relationships and stereochemical investigations of new tricyclic pyridazinone derivatives as potential STAT3 inhibitors” (Medchemcomm, 2013).

Test [1] addresses Signal transducer and activator of transcription 3 (Homo sapiens) (UniProt P40763). Nature of the test: Inhibition of STAT3 (unknown origin) expressed in human HCT116 cells at 2 uM by dual luciferase assay. The conditions noted are these: HCT-116. The format is cell-based.
Test [2] has the same target. As to the kind of experiment: Binding affinity to STAT3 SH2 domain (unknown origin) pre-incubated 15 mins before (FITC)-GpYLPQTV probe and measured after 90 mins by Alpha screen assay. (In general: Alpha assays give light when donor and acceptor beads are brought close together.)
For test [3] the target is unchanged. As to the kind of experiment: Inhibition of STAT3 (unknown origin) expressed in human HCT116 cells at 10 uM by dual luciferase assay relative to (+) enantiomer. The following applies: HCT-116. The format is cell-based.

Calls of active or inactive are those of the source. The rule behind the calls is not given here.

Signal transducer and activator of transcription 3 (Homo sapiens), sequence (P40763 whole entry, the tested form may be a part): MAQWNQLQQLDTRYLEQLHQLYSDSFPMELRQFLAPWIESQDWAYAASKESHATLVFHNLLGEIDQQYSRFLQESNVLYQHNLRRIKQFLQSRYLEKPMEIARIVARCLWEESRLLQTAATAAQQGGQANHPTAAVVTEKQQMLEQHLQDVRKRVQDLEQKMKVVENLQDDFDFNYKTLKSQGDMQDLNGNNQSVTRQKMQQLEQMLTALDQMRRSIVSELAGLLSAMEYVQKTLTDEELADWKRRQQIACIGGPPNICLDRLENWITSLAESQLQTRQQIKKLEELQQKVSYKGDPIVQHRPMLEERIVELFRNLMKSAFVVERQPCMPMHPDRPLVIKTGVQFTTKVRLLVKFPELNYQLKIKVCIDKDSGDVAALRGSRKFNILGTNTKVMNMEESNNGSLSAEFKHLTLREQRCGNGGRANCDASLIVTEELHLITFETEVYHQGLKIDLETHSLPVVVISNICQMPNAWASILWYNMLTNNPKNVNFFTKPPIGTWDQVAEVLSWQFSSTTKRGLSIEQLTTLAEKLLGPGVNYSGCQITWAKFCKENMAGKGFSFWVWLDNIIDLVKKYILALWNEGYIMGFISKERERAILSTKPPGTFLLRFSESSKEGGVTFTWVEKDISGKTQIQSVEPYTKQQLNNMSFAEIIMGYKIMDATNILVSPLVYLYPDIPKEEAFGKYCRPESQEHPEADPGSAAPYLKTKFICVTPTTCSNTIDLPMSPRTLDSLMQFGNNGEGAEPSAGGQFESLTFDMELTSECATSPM

As to `CCOC(=O)CCCCCCN1N=C2c3ccccc3CCC2CC1=O` (stereo unspecified), the inhibition in test [1] is 22%.

On to `O=C(O)CCCN1N=C2c3ccccc3CCC2CC1=O` (stereo unspecified), for which the inhibition in test [1] was found to be 8%.

As to `CCOC(=O)CCCn1nc2c(cc1=O)CCc1ccccc1-2`, in test [1], the inhibition turned out to be 1%.

Turning to `CCOC(=O)CCCN1N=C2c3ccccc3CCC2CC1=O` (racemic), the result in test [2] was inactive. For the same compound, the inhibition in test [1] worked out at 46%.

In the case of `O=C1CC2CCc3ccccc3C2=NN1CCCc1nn[nH]n1` (stereo unspecified), the inhibition in test [1] is -9%.

As for `CCOC(=O)CCCN1N=C2c3cc(OC)cc(OC)c3CCC2CC1=O` (stereo unspecified), the inhibition in test [1] was 23%.

Take `CCOC(=O)CCCCN1N=C2c3ccccc3CCC2CC1=O` (stereo unspecified): the inhibition in test [1] was 21%.

On to `O=C(O)CCN1N=C2c3ccccc3CCC2CC1=O` (stereo unspecified), for which the inhibition in test [1] is -2%.

Compound `CCOC(=O)CCCN1N=C2c3ccccc3CC[C@H]2CC1=O` showed a fold change (FC) in test [3] of 2.

With `C[C@H]1COC2=C1C(=O)C(=O)c1c2ccc2c1CCCC2(C)C`, the inhibition in test [1] was 25%.

Take `CCNC(=O)CCCN1N=C2c3ccccc3CCC2CC1=O` (stereo unspecified): in test [1], the inhibition is 16%.

Consider `CCOC(=O)CCCN1N=C2c3ccc(Cl)cc3CCC2CC1=O` (stereo unspecified), for which the inhibition in test [1] is 9%.

For the compound `CCCCCN1N=C2c3ccccc3CCC2CC1=O` (stereo unspecified), the inhibition in test [1] was 22%.

On to `CCOC(=O)CN1N=C2c3ccccc3CCC2CC1=O` (stereo unspecified), for which the inhibition in test [1] was 3%.

In the case of `CCNCCCCN1N=C2c3ccccc3CCC2CC1=O` (stereo unspecified), the inhibition in test [1] turned out to be 3%.

Turning to `CCOC(=O)CCCCCN1N=C2c3ccccc3CCC2CC1=O` (stereo unspecified), the inhibition in test [1] came to 25%.

For `CCOC(=O)CCN1N=C2c3ccccc3CCC2CC1=O` (stereo unspecified), the inhibition in test [1] amounted to 30%.

Take `O=C1CC2CCc3ccccc3C2=NN1` (stereo unspecified): the inhibition in test [1] is -6%.

In the case of `CCCCN1N=C2c3ccccc3CCC2CC1=O` (stereo unspecified), the inhibition in test [1] was -9%.

Take `CCOC(=O)CCCN1N=C2c3ccccc3CC2CC1=O` (stereo unspecified): in test [1], the inhibition came to 28%.

By inhibition is commonly meant the change of the read-out against control, counted positive when it falls.
